In PubChem BioAssay AID2384 (Southern Research Specialized Biocontainment Screening …, 2010):

Test system: S. typhi GFP reporter counter-screen, fluorescence, 4 h
Experiment: inhibitors in S. typhi counter-screen strain, dose response, counter-screen for PhoP regulon inhibitor project, fluorescence, 4 h (AID 2384)

Q: How did the IC50 turn out when `Nc1nc2ccccc2n1Cc1ccc(Cl)c(Cl)c1` was run?
A: 74.7 µM

Q: How did the IC50 turn out when `CCOC(=O)C1=C(O)c2ccccc2C(=O)/C1=C\c1ccc(C)cc1` was run?
A: 137 µM

Q: For `COc1ccc(C(=O)N/N=C/c2sc3ccccc3c2O)cc1`, which IC50 is on record?
A: 62.6 µM

Q: `CN1CCN(c2ccc(NC(=O)CSc3ccccc3)cc2F)CC1` was tested. Which IC50 did it give?
A: 104 µM

Q: Which IC50 does the source give for `CCn1cc(C(=O)O)c(=O)c2cc(F)c(N3CCNCC3)cc21` here?
A: 0.49 µM

Q: How did the IC50 turn out when `CCCCCCC[N+](CC)(CC)CCCCc1ccc(Cl)cc1` was run?
A: 37.3 µM

Q: How did the IC50 turn out when `O=[N+]([O-])/C=C/c1cc2ccccc2[nH]1` was run?
A: 36.9 µM

Q: `CNC[C@H](CC1CCCCC1)NC[C@H](Cc1ccccc1)NCCC12CC3CC(CC(C3)C1)C2` was tested. Which IC50 did it give?
A: 10.4 µM

Q: `CCOc1ccc(-c2cc(C)[n+](CCN(CC)CC)c(-c3ccc(OCC)cc3)c2)cc1` was tested. Which IC50 did it give?
A: 26.4 µM

Q: `O=C(N/N=C/c1cc(O)ccc1Br)c1cccnc1` was tested. Which IC50 did it give?
A: 69.4 µM

Q: `C#CCOCCOCCOCCNc1nc(N2CCN(C(=O)CCCCCCCCCCNC(=O)[C@H](CCCCN)n3cc(C)nn3)CC2)nc(N2CCN(C(=O)CCCCCCCCCCNC(=O)[C@@H]([C@H](C)CC)n3cc(CCCCCN)nn3)CC2)n1` was tested. Which IC50 did it give?
A: 20.4 µM

Q: Which IC50 does the source give for `Cc1ccc(-c2c[n+](Cc3ccc(Cl)cc3)c3n2CCC3)cc1` here?
A: 46 µM

Q: How did the IC50 turn out when `CCN1CCN(C(=O)c2cc3ccc(OC)cc3[nH]2)CC1` was run?
A: 34.1 µM

Q: For `N=c1c2c(n(Cc3cccc(Cl)c3)c3c1CCC3)CCCC2`, which IC50 is on record?
A: 47.8 µM

Q: `c1ccc2c(c1)CCc1ccccc1C2=C1CCNCC1` was tested. Which IC50 did it give?
A: 58.2 µM

Q: How did the IC50 turn out when `O=C(CCC(=O)Nc1ccc(Cl)cc1Cl)N/N=C/c1ccc([N+](=O)[O-])o1` was run?
A: 29 µM

Q: With `c1ccc(CN2CCN(c3ncnc4c3[nH]c3ccccc34)CC2)cc1` as the compound, how does the IC50 read?
A: 73.8 µM

Q: `O=C(Nc1cccc([N+](=O)[O-])c1)Nc1cccs1` was tested. Which IC50 did it give?
A: 38.9 µM

Q: For `O=C(Cn1nc(CNc2ccc(Br)cc2)[n+]2c1CCCCC2)c1ccc([N+](=O)[O-])cc1`, which IC50 is on record?
A: 35 µM

Q: Which IC50 does the source give for `Cc1nc(N)c(Cc2ccc(Cl)cc2Cl)c(N)n1` here?
A: 30.4 µM

Q: For `Cc1ccc(C)c(NC(=O)CCC(=O)N/N=C/c2cc([N+](=O)[O-])ccc2O)c1`, which IC50 is on record?
A: 47.1 µM

Q: For `CNCCCCOc1ccc(C(C)(C)C)cc1Cl`, which IC50 is on record?
A: 58.2 µM

Q: How did the IC50 turn out when `COc1cc(CNCCc2c[nH]c3ccccc23)ccc1OCc1ccccc1F` was run?
A: 70.8 µM

Q: For `CN(C)CCCN1c2ccccc2Sc2ccc(C(F)(F)F)cc21`, which IC50 is on record?
A: 103 µM

Q: Which IC50 does the source give for `CC(NCc1ccc(-c2ccccc2)cc1)C(O)c1ccccc1` (configuration not stated) here?
A: 39 µM

Q: For `CN1C(=O)N2CN(C3CCCCC3)CN3C(=O)N(C)C1C23` (configuration not stated), which IC50 is on record?
A: 110 µM

Q: How did the IC50 turn out when `CCCCCCCC(=O)N/N=C/c1ccc([N+](=O)[O-])o1` was run?
A: 40.2 µM

Q: With `COc1ccc(C(=O)NC(=S)NNC(=O)c2cccc(C)c2)cc1` as the compound, how does the IC50 read?
A: 48.8 µM

Q: With `CCCCn1c(NS(=O)(=O)c2ccc(C)cc2)c(S(=O)(=O)c2ccccc2)c2nc3ccccc3nc21` as the compound, how does the IC50 read?
A: 9.71 µM

Q: How did the IC50 turn out when `Cc1cc2oc(=O)cc(CN3CCN(C/C=C/c4ccccc4)CC3)c2cc1O` was run?
A: 92.9 µM

Q: `O=C(N/N=C/c1c[nH]c2ccccc12)c1ccc(Cl)cc1` was tested. Which IC50 did it give?
A: 91.6 µM

Q: `CCc1cccc2c(C(=O)COC(=O)c3ccc([N+](=O)[O-])s3)c[nH]c12` was tested. Which IC50 did it give?
A: 18.7 µM

Q: `CCc1ccc(NC(=O)C[n+]2cc(-c3ccc(C)cc3)n3c2CCC3)cc1` was tested. Which IC50 did it give?
A: 37.2 µM

Q: Which IC50 does the source give for `COc1ccc(OCC(O)CNc2ccc(Br)cc2)cc1` (configuration not stated) here?
A: 3.74 µM

Q: With `CC1(C)CC(N2CCN(C(c3ccccc3)c3ccccc3)CC2)=CC(=[N+]2CCCCC2)C1` as the compound, how does the IC50 read?
A: 63.2 µM

Q: With `Cc1ncc(CC(=O)n2cc(C(=O)c3cc(Cl)ccc3O)cn2)s1` as the compound, how does the IC50 read?
A: 82.9 µM

Q: For `Oc1c(CN2CCN(c3ccccn3)CC2)cc(Cl)c2cccnc12`, which IC50 is on record?
A: 17.7 µM

Q: How did the IC50 turn out when `S=C(Nc1ccc(Cl)c(Cl)c1)NC1CCN(Cc2ccccc2)CC1` was run?
A: 37.8 µM

Q: How did the IC50 turn out when `CCCOc1ccc(C(=O)NNC(=S)NC(=O)CC)cc1` was run?
A: 28.7 µM

Q: With `CC1(C)N=C(N)NC(Nc2cccc(Br)c2)=N1` as the compound, how does the IC50 read?
A: 72.5 µM

Q: `CCCCCCCCCCOC(=O)Cn1c(COc2ccccc2OC)[n+](C)c2ccccc21` was tested. Which IC50 did it give?
A: 20 µM

Q: How did the IC50 turn out when `NC[C@@H]1O[C@H](C23CC4CC(CC(C4)C2)C3)Cc2c1ccc(O)c2O` was run?
A: 27 µM

Q: With `Cc1ccc2nc(N(CCCN(C)C)C(=O)c3ccc4c(c3)CCCC4)sc2c1` as the compound, how does the IC50 read?
A: 31.8 µM

Q: Which IC50 does the source give for `Cc1ccc(N=Cc2cc(Br)cc(Cl)c2O)cc1` here?
A: 47.1 µM

Q: `COC(=O)C1C(O)C(C)C(O)C(C)(O)/C=C\C=C(/C)C(=O)Nc2c(C)c(OC(C)=O)c3c(c2O)C(=O)C(C)=C2OCOC(=C23)/C(C)=C/C(C)(O)C(O)C(C)C1O` (configuration not stated) was tested. Which IC50 did it give?
A: 23.9 µM

Q: How did the IC50 turn out when `O=S(=O)(Nc1c(S(=O)(=O)c2ccccc2)c2nc3ccccc3nc2n1C1CCCCC1)c1ccccc1` was run?
A: 5.67 µM

Q: `Cc1ccc(NC(=O)CN(C)C2CCCCC2)cc1Br` was tested. Which IC50 did it give?
A: 41.6 µM

Q: How did the IC50 turn out when `Cc1ccc(C(OCC(O)CNCc2ccc(F)cc2)c2ccccc2)cc1` (configuration not stated) was run?
A: 37 µM

Q: `Cc1cc(NC2CCCCC2)nc(NCc2ccccc2)n1` was tested. Which IC50 did it give?
A: 36.1 µM

Q: With `CN(Cc1ccccc1O)CC1CCCN(CCc2ccc(Cl)cc2)C1` (configuration not stated) as the compound, how does the IC50 read?
A: 16.9 µM

Q: Which IC50 does the source give for `Oc1c(Br)cc(Br)cc1C=NCc1ccc(F)cc1` here?
A: 46.2 µM

Q: With `Cc1cc(OCC(O)CNC(C)c2ccccc2)ccc1C(C)C` (configuration not stated) as the compound, how does the IC50 read?
A: 38.3 µM

Q: Which IC50 does the source give for `NC1CCN(c2c(F)cc3c(=O)c(C(=O)O)cn(C4CC4)c3c2Cl)C1` (configuration not stated) here?
A: < 0.55 µM

Q: With `CCCOc1ccc(C2=CSC3=NCCN23)cc1Cl` as the compound, how does the IC50 read?
A: 75.1 µM

Q: `CCn1cc(C(=O)O)c(=O)c2cc(F)c(N3CCN(C(=S)NC(=O)c4cccc(F)c4)CC3)cc21` was tested. Which IC50 did it give?
A: 94.6 µM

Q: For `O=c1[nH]cc(F)c(=O)[nH]1`, which IC50 is on record?
A: 2.53 µM

Q: With `Oc1cccc(C=NCc2ccccc2)c1O` as the compound, how does the IC50 read?
A: 73.7 µM
